Reference: US20240109924A1, “IP4-4,6 SUBSTITUTED DERIVATIVE COMPOUNDS” (SANIFIT THERAPEUTICS, S.A., priority 2021, published 2024)
pEC50: −log10 of the molar value. Structures can show the parent of a compound that is named as a salt.

Experiment: In vitro inhibition of calcium phosphate crystallization in human plasma (spectrophotometric assay)
Type: biochemical
Conditions: 0-100 μM, 1.5 mM phosphate, 12.5 mM calcium, pH 7.4, absorbance 550 nm, slope 6-24 min, read-out: Relative Potency
Protocol: The in vitro efficacy of the IP4-4,6 substituted derivatives (e.g., Compounds 1 to 53) of the invention on the inhibition of calcium phosphate crystallization in human plasma samples was evaluated according to a spectrophotometric assay previously described in the art (Ferrer M, et al., Sci Rep 2017; 7:6858, doi:10.1038/s41598-017-07203-x).
A 96-well plate was employed. Plasma was spiked (1 volume of the IP4-4,6 substituted derivatives of the invention per 19 volumes of plasma) with increasing concentrations of the derivatives in the range of 0-100 μM. Plasma was then centrifuged at 10,000 g at rt and subsequently mixed with a mixture of 5 mM hydrogen phosphate and 41.67 mM calcium to attain final concentrations of 1.5 mM phosphate and 12.5 mM calcium, respectively. All reagent solutions were filtered, and pH adjusted to 7.4.
Crystallization of calcium phosphate was monitored spectrophotometrically for 30 min at rt by measuring the increments in absorbance at 550 nm using the Biotek Powerwave XS Microplate spectrophotometer (BioTek Instruments, Inc., Winooski, VT, US). The plate was incubated at rt in an orbital shaker and absorbance measured every 3 min.
Plasma crystallization was assessed based on slope measurement in the linear range between 6 and 24 min from plots of increase in absorbance versus logarithm of time. The efficacy of different myo-inositol phosphates derivatives in preventing in vitro formation of calcium phosphate crystals was assessed in human plasma samples using the slopes obtained between 6- and 24-min. Inhibition of crystallization was measured by comparing the slopes of the control sample (blank plasma) with those of samples containing the inhibitor as shown below: […]

In the case of `CCCCCCCCCCOC1C(OP(=O)(O)O)C(OCCCCCCCCCC)C(OP(=O)(O)O)C(OP(=O)(O)O)C1OP(=O)(O)O` (stereo not shown) [Compound 2, 4,6-O-didecyl-myo-inositol-1,2,3,5-tetrakis(phosphate) octasodium salt], the pEC50 was < 5.00.

In the case of `CCCCCCCCCCCCCCO[C@@H]1[C@@H](OP(=O)(O)O)[C@H](OCCCCCCCCCCCCCC)[C@@H](OP(=O)(O)O)[C@@H](OP(=O)(O)O)[C@H]1OP(=O)(O)O` [Compound 3, 4,6-O-di(tetradecyl)-myo-inositol-1,2,3,5-tetrakis(phosphate) octasodium salt], the pEC50 was ≥ 5.30.

With `CCCO[C@@H]1[C@@H](OP(=O)(O)O)[C@H](OCCC)[C@@H](OP(=O)(O)O)[C@@H](OP(=O)(O)O)[C@H]1OP(=O)(O)O` [Compound 4, 4,6-O-dipropyl-myo-inositol-1,2,3,5-tetrakis(phosphate) octasodium salt] the pEC50 was ≥ 5.30.

With `CCCCCCCOC1C(OP(=O)(O)O)C(OCCCCCCC)C(OP(=O)(O)O)C(OP(=O)(O)O)C1OP(=O)(O)O` (stereo not shown) [Compound 5, 4,6-O-diheptyl-myo-inositol-1,2,3,5-tetrakis(phosphate) octasodium salt] the pEC50 was ≥ 5.30.

In the case of `O=P(O)(O)OC1C(OCCCCCCCCCCO)C(OP(=O)(O)O)C(OP(=O)(O)O)C(OP(=O)(O)O)C1OCCCCCCCCCCO` (stereo not shown) [Compound 7, 4,6-O-bis(10-hydroxydecyl)-myo-inositol-1,2,3,5-tetrakis(phosphate) octasodium salt], the pEC50 was < 5.00.

For `COCCCOC1C(OP(=O)(O)O)C(OCCCOC)C(OP(=O)(O)O)C(OP(=O)(O)O)C1OP(=O)(O)O` (stereo not shown) [Compound 10, 4,6-O-bis(3-methoxypropyl)-myo-inositol-1,2,3,5-tetrakis(phosphate) octasodium salt], the pEC50 was ≥ 5.30.

In the case of `COCCCCCCCOC1C(OP(=O)(O)O)C(OCCCCCCCOC)C(OP(=O)(O)O)C(OP(=O)(O)O)C1OP(=O)(O)O` (stereo not shown) [Compound 11, 4,6-O-bis(7-methoxyheptyl)-myo-inositol-1,2,3,5-tetrakis(phosphate) octasodium salt], the pEC50 was < 5.00.

In the case of `COCCCCCCCCCOC1C(OP(=O)(O)O)C(OCCCCCCCCCOC)C(OP(=O)(O)O)C(OP(=O)(O)O)C1OP(=O)(O)O` (stereo not shown) [Compound 12, 4,6-O-bis(9-methoxynonyl)-myo-inositol-1,2,3,5-tetrakis(phosphate) octasodium salt], the pEC50 was < 5.00.

Work on `NCCCOC1C(OP(=O)(O)O)C(OCCCN)C(OP(=O)(O)O)C(OP(=O)(O)O)C1OP(=O)(O)O` (stereo not shown) [Compound 13, 4,6-O-bis(3-aminopropyl)-myo-inositol-1,2,3,5-tetrakis(phosphate) octasodium salt] yielded a pEC50 of 5.00 to 5.30.

In the case of `NCCCCCCCCCCO[C@@H]1[C@@H](OP(=O)(O)O)[C@H](OCCCCCCCCCCN)[C@@H](OP(=O)(O)O)[C@@H](OP(=O)(O)O)[C@H]1OP(=O)(O)O` [Compound 15, 4,6-O-bis(10-aminodecyl)-myo-inositol-1,2,3,5-tetrakis(phosphate) octasodium salt], the pEC50 was < 5.00.

With `O=P(O)(O)OC1C(OCCCCCn2cccn2)C(OP(=O)(O)O)C(OP(=O)(O)O)C(OP(=O)(O)O)C1OCCCCCn1cccn1` (stereo not shown) [Compound 16, 4,6-O-bis(5-(1H-pyrazol-1-yl)pentyl)-myo-inositol-1,2,3,5-tetrakis(phosphate) octasodium salt] the pEC50 was ≥ 5.30.

In the case of `O=P(O)(O)OC1C(OCCCCCn2cncn2)C(OP(=O)(O)O)C(OP(=O)(O)O)C(OP(=O)(O)O)C1OCCCCCn1cncn1` (stereo not shown) [Compound 17, 4,6-O-bis(5-(1H-1,2,4-triazol-1-yl)pentyl)-myo-inositol-1,2,3,5-tetrakis(phosphate) octasodium salt], the pEC50 was < 5.00.

In the case of `O=C(O)CCCCCCCCCCOC1C(OP(=O)(O)O)C(OCCCCCCCCCCC(=O)O)C(OP(=O)(O)O)C(OP(=O)(O)O)C1OP(=O)(O)O` (stereo not shown) [Compound 19, 4,6-O-bis(10-carboxydecyl)-myo-inositol-1,2,3,5-tetrakis(phosphate) decasodium salt], the pEC50 was < 5.00.

For `COCCCCCCCCC#CCCCCCCCCCOC1C(OP(=O)(O)O)C(OCCCCCCCCCC#CCCCCCCCCOC)C(OP(=O)(O)O)C(OP(=O)(O)O)C1OP(=O)(O)O` (stereo not shown) [Compound 20, 4,6-O-bis(19-methoxynonadec-10-yn-1-yl)-myo-inositol-1,2,3,5-tetrakis(phosphate) octasodium salt], the pEC50 was ≥ 5.30.

With `CC(C)CCCOC1C(OP(=O)(O)O)C(OCCCC(C)C)C(OP(=O)(O)O)C(OP(=O)(O)O)C1OP(=O)(O)O` (stereo not shown) [Compound 21, 4,6-O-bis(4-methylpentyl)-myo-inositol-1,2,3,5-tetrakis(phosphate) octasodium salt] the pEC50 was < 5.00.

In the case of `O=P(O)(O)O[C@@H]1[C@@H](OCCCC(F)(F)F)[C@H](OP(=O)(O)O)[C@H](OP(=O)(O)O)[C@H](OP(=O)(O)O)[C@H]1OCCCC(F)(F)F` [Compound 22, 4,6-O-bis(4,4,4-trifluorobutyl)-myo-inositol-1,2,3,5-tetrakis(phosphate) octasodium salt], the pEC50 was ≥ 5.30.

In the case of `O=P(O)(O)OC1C(OCCCCCC(F)(F)F)C(OP(=O)(O)O)C(OP(=O)(O)O)C(OP(=O)(O)O)C1OCCCCCC(F)(F)F` (stereo not shown) [Compound 23, 4,6-O-bis(6,6,6-trifluorohexyl)-myo-inositol-1,2,3,5-tetrakis(phosphate) octasodium salt], the pEC50 was < 5.00.

With `COC(=O)NCCCOC1C(OP(=O)(O)O)C(OCCCNC(=O)OC)C(OP(=O)(O)O)C(OP(=O)(O)O)C1OP(=O)(O)O` (stereo not shown) [Compound 24, 4,6-O-bis(3-((methoxycarbonyl)amino)propyl)-myo-inositol-1,2,3,5-tetrakis(phosphate) octasodium salt] the pEC50 was < 5.00.

For `COC(=O)NCCCCCOC1C(OP(=O)(O)O)C(OCCCCCNC(=O)OC)C(OP(=O)(O)O)C(OP(=O)(O)O)C1OP(=O)(O)O` (stereo not shown) [Compound 25, 4,6-O-bis(5-((methoxycarbonyl)amino)pentyl)-myo-inositol-1,2,3,5-tetrakis(phosphate) octasodium salt], the pEC50 was ≥ 5.30.

With `NC(=O)CCCOC1C(OP(=O)(O)O)C(OCCCC(N)=O)C(OP(=O)(O)O)C(OP(=O)(O)O)C1OP(=O)(O)O` (stereo not shown) [Compound 26, 4,6-O-bis(4-amino-4-oxobutyl)-myo-inositol-1,2,3,5-tetrakis(phosphate) octasodium salt] the pEC50 was ≥ 5.30.

For `CC(=O)NCCCCCO[C@@H]1[C@@H](OP(=O)(O)O)[C@H](OCCCCCNC(C)=O)[C@@H](OP(=O)(O)O)[C@@H](OP(=O)(O)O)[C@H]1OP(=O)(O)O` [Compound 27, 4,6-O-bis(5-acetamidopentyl)-myo-inositol-1,2,3,5-tetrakis(phosphate) octasodium salt], the pEC50 was ≥ 5.30.

In the case of `O=P(O)(O)OC1C(OCCC2CC2)C(OP(=O)(O)O)C(OP(=O)(O)O)C(OP(=O)(O)O)C1OCCC1CC1` (stereo not shown) [Compound 28, 4,6-O-bis(2-cyclopropylethyl)-myo-inositol-1,2,3,5-tetrakis(phosphate) octasodium salt], the pEC50 was ≥ 5.30.

For `O=P(O)(O)O[C@@H]1[C@@H](OCCC2CCCC2)[C@H](OP(=O)(O)O)[C@H](OP(=O)(O)O)[C@H](OP(=O)(O)O)[C@H]1OCCC1CCCC1` [Compound 29, 4,6-O-bis(2-cyclopentylethyl)-myo-inositol-1,2,3,5-tetrakis(phosphate) octasodium salt], the pEC50 was ≥ 5.30.

For `CCCNC(=O)NCCCCCOC1C(OP(=O)(O)O)C(OCCCCCNC(=O)NCCC)C(OP(=O)(O)O)C(OP(=O)(O)O)C1OP(=O)(O)O` (stereo not shown) [Compound 30, 4,6-O-bis(5-(3-propylureido)pentyl)-myo-inositol-1,2,3,5-tetrakis(phosphate) octasodium salt], the pEC50 was ≥ 5.30.

With `COCCCn1cc(CO[C@@H]2[C@@H](OP(=O)(O)O)[C@H](OCc3cn(CCCOC)nn3)[C@@H](OP(=O)(O)O)[C@@H](OP(=O)(O)O)[C@H]2OP(=O)(O)O)nn1` [Compound 32, 4,6-O-bis((1-(3-methoxypropyl)-1H-1,2,3-triazol-4-yl)methyl)-myo-inositol-1,2,3,5-tetrakis(phosphate) octasodium salt] the pEC50 was ≥ 5.30.

For `COCCCCCCn1cc(COC2C(OP(=O)(O)O)C(OCc3cn(CCCCCCOC)nn3)C(OP(=O)(O)O)C(OP(=O)(O)O)C2OP(=O)(O)O)nn1` (stereo not shown) [Compound 33, 4,6-O-bis((1-(6-methoxyhexyl)-1H-1,2,3-triazol-4-yl)methyl)-myo-inositol-1,2,3,5-tetrakis(phosphate) octasodium salt], the pEC50 was 5.00 to 5.30.

In the case of `CC(=O)N1CCN(CCOC2C(OP(=O)(O)O)C(OCCN3CCN(C(C)=O)CC3)C(OP(=O)(O)O)C(OP(=O)(O)O)C2OP(=O)(O)O)CC1` (stereo not shown) [Compound 34, 4,6-O-bis(2-(4-acetylpiperazin-1-yl)ethyl)-myo-inositol-1,2,3,5-tetrakis(phosphate) octasodium salt], the pEC50 was 5.00 to 5.30.

For `O=C(O)CCc1cn(CCCOC2C(OP(=O)(O)O)C(OCCCn3cc(CCC(=O)O)nn3)C(OP(=O)(O)O)C(OP(=O)(O)O)C2OP(=O)(O)O)nn1` (stereo not shown) [Compound 35, 4,6-O-bis(3-(4-(2-carboxyethyl)-1H-1,2,3-triazol-1-yl)propyl)-myo-inositol-1,2,3,5-tetrakis(phosphate) decasodium salt], the pEC50 was ≥ 5.30.
